Drawing on patent US9359351B2, “Cap/endo dual inhibitors and their use in the treatment, amelioration or prevention of a viral disease” (priority 2014, dated 2016), this text covers Kd, IC50 and inhibition for 43 molecules.

For test [1], the target named is PB2 cap binding domain (CBD) of an avian H5N1 influenza virus (Influenza A virus, UniProt Q9Q0V1). Description: biochemical. The settings on record: Biacore KD. For orientation: SPR reads the build-up and loss of mass on a sensor chip optically.
PB2 cap binding domain (CBD) of an avian H5N1 influenza virus, sequence (Q9Q0V1 318-483 limits assumed): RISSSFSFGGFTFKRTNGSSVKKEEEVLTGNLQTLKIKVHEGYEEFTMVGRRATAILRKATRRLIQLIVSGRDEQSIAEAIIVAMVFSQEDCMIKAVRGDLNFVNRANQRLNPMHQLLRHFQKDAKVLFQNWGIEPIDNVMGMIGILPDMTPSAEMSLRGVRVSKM
Test [2] deals with T1, influenza A virus (IAV) PA-Nter fragment (amino acids 1-209) (Influenza A virus, UniProt P31343).
T1 construct: PA-Nter fragment (amino acids 1-209); made in house
The test can be described thus: biochemical. The conditions noted are these: FRET IC50.

Test [3] relates to influenza A virus (IAV) A/Aichi/2/68 (H3N2). Description: microbe, parasite or virus in culture. The format is cell-based, influenza A virus A/Aichi/2/68 (H3N2) on MDCK cells. The settings on record: H3N2, MDCK; for IC50: 48 h, read-out: CPE IC50; for inhibition at 50 µM: read-out: CPE % inhib.
The target of test [4] is whole RNP complex, IAV strain A/PR/8/34 (Influenza A virus, UniProt P03428+P03433). Description: biochemical.

The term Kd denotes the concentration at which binding is half-saturated. A higher Kd goes with a looser complex. As usually defined, the IC50 is the point on the concentration scale where inhibition reaches its midpoint. Regarding `CC(C)N1CCn2c(COCCOc3nccc4[nH]ncc34)cc(=O)c(O)c2C1=O`, in test [1], the Kd is over 100 µM. For the same molecule, the IC50 was 0.37 µM in test [2] and over 50 µM in test [3].
The matching figures for `CC(C)N1CCn2c(CNC(=O)[C@@H](Cc3cccc(Cl)c3)NC(=O)c3ccc4n[nH]c(=O)n4c3)cc(=O)c(O)c2C1=O`: over 100 µM, 2.88 µM and 51.7 µM.
Molecule `CC(C)N1CCn2c(CNC(=O)[C@@H](Cc3cccc(Cl)c3)NC(=O)c3n[nH]c4ncccc34)cc(=O)c(O)c2C1=O` displayed a Kd in test [1] of 55.1 µM. In addition, the IC50 in test [2] was 1.09 µM; in test [3] it was over 50 µM.
The matching figures for `CC(C)N1CCn2c(CNC(=O)c3cccc(NC(=O)c4ccc5n[nH]c(=O)n5c4)c3)cc(=O)c(O)c2C1=O`: 21.9 µM, 1.66 µM and 35.1 µM.
`CC(C)N1CCn2c(CNC(=O)C3(NC(=O)c4c[nH]c5ncc(C6CC6)nc45)CCCCC3)cc(=O)c(O)c2C1=O`: the IC50 is 0.38 µM in test [4] and over 50 µM in test [3].
`CC(C)N1CCn2c(CNC(=O)c3cccc(NC(=O)c4n[nH]c5ncccc45)c3)cc(=O)c(O)c2C1=O` [drawing 28] showed a Kd in test [1] of 26.3 µM. Besides, the IC50 in test [2] is 1.51 µM; in test [3], over 50 µM.
`CC(C)N1CCn2c(CNC(=O)c3cccc(Nc4nccc5[nH]ncc45)c3)cc(=O)c(O)c2C1=O`: binding in test [1] was put at a Kd of 97.6 µM. The IC50 in test [2] is 0.55 µM; in test [3], 21.8 µM.
In the case of `CC(C)N1CCn2c(CNC(=O)CCCCCNc3nc(C4=CN5C(=O)N=NC5C=C4)ncc3F)cc(=O)c(O)c2C1=O` (stereo not shown), the IC50 in test [4] is 5.35 µM; in test [3], over 25 µM.
The matching figures for `CC(C)N1CCn2c(CNC(=O)C[C@H](NC(=O)c3c[nH]c4ncc(C5CC5)nc34)c3ccccc3)cc(=O)c(O)c2C1=O`: 1.53 µM and over 33.7 µM.
`CC(C)N1CCn2c(CNC(=O)C3(NC(=O)c4cccn5c(=O)[nH]nc45)CCCCC3)cc(=O)c(O)c2C1=O` gave a Kd in test [1] of over 25 µM. In addition, the IC50 in test [2] is 2.84 µM; in test [3], over 50 µM.
The corresponding values for `CC(C)N1CCn2c(CNc3nccc4[nH]ncc34)cc(=O)c(O)c2C1=O` are over 100 µM, 0.4 µM and over 50 µM.
For `CC(C)N1CCn2c(CNC(=O)[C@H](NC(=O)c3c[nH]c4ncc(C5CC5)nc34)c3ccccc3)cc(=O)c(O)c2C1=O`, the IC50 in test [2] worked out at 2.34 µM; in test [3], 8.2 µM.
In test [1], `CC(C)N1CCn2c(CNC(=O)CC(Nc3nc(-c4n[nH]c5ncc(F)cc45)ncc3F)C3CC3)cc(=O)c(O)c2C1=O` (stereo not shown) gave a Kd of 8.16 µM. In addition, the 50% inhibitory concentration (IC50) in test [2] was 19.7 µM; in test [3] it was 48 µM.
`CC(C)N1CCn2c(COC(=O)c3c[nH]c4ncc(C5CC5)nc34)cc(=O)c(O)c2C1=O`: the Kd in test [1] came out at 9.3 µM. Moreover, the concentration for half-maximal inhibition (IC50) is 0.49 µM in test [2] and 68.7 µM in test [3].
Consider `CC(C)N1CCn2c(CNCCNc3cc4[nH]ccc4c(Cl)n3)cc(=O)c(O)c2C1=O`, for which the IC50 is 0.58 µM in test [2] and over 50 µM in test [3].
In turn, `CC(C)N1CCn2c(CNC(=O)c3n[nH]c4ncccc34)cc(=O)c(O)c2C1=O` came in with a Kd in test [1] of over 100 µM. Also, the IC50 in test [2] is 0.4 µM; in test [3], over 50 µM.
`CC(C)N1CCn2c(CNC(=O)[C@H](NC(=O)c3c[nH]c4ncc(C5CC5)nc34)C3CC3)cc(=O)c(O)c2C1=O` registered a 50% inhibitory concentration (IC50) in test [4] of 0.22 µM. Also, the inhibition at 50 µM in test [3] was 47%.
For the molecule `CC(C)[C@H](NC(=O)c1c[nH]c2ncc(C3CC3)nc12)C(=O)NCc1cc(=O)c(O)c2n1CCN(C(C)C)C2=O`, in test [1], the Kd amounted to 16.8 µM. The IC50 in test [2] was determined as 0.75 µM; in test [3] it was 42 µM.
In the case of `CC(C)N1CCn2c(CNC(=O)[C@H]3CCC[C@@H](Nc4nc(-c5n[nH]c6ncc(F)cc56)ncc4F)C3)cc(=O)c(O)c2C1=O`, the IC50 is over 25 µM in test [2] and 15.1 µM in test [3].
`CC(C)N1CCn2c(COC(=O)c3cccn4c(=O)[nH]nc34)cc(=O)c(O)c2C1=O` returned a Kd in test [1] of over 100 µM. For the same molecule, the half-inhibitory concentration (IC50) is 0.41 µM in test [2] and over 50 µM in test [3].
Turning to `CC(C)[C@@H](CC(=O)NCc1cc(=O)c(O)c2n1CCN(C(C)C)C2=O)Nc1nc(C2=CN3C(=O)N=NC3C=C2)ncc1F` (stereo partly shown), the IC50 is 8.15 µM in test [4] and over 1.28 µM in test [3].
Consider `CC(C)N1CCn2c(CNC(=O)CNC(=O)c3ccc4n[nH]c(=O)n4c3)cc(=O)c(O)c2C1=O`, for which the Kd in test [1] was determined as 14.1 µM. For the same molecule, the values for the IC50 in test [2] and in test [3] were 1.94 µM and over 50 µM, respectively.
`CC(C)N1CCn2c(CNC(=O)CCCCCNc3nc(-c4n[nH]c5ncc(F)cc45)ncc3F)cc(=O)c(O)c2C1=O` came in with a Kd in test [1] of 0.42 µM. Also, the figures for the concentration for half-maximal inhibition (IC50) in test [2] and in test [3] were 19.7 µM and 15 µM, respectively.
The corresponding values for `CC(C)N1CCn2c(CNC(=O)[C@H](Cc3cccc(Cl)c3)NC(=O)c3cccn4c(=O)[nH]nc34)cc(=O)c(O)c2C1=O` are 475 µM, 0.291 µM and 31.2 µM.
In the case of `CC(C)[C@H](Nc1nc(-c2n[nH]c3ncc(F)cc23)ncc1F)C(=O)NCc1cc(=O)c(O)c2n1CCN(C(C)C)C2=O`, in test [1], the Kd was found to be 10 µM. Also, the IC50 in test [2] is 8.04 µM; in test [3] it was over 50 µM.
Consider `CC(C)N1CCn2c(CNCCNc3nccc4[nH]ncc34)cc(=O)c(O)c2C1=O`, for which the IC50 in test [2] was 1.46 µM; in test [3], over 50 µM.
Consider `CC(C)N1CCn2c(CNC(=O)c3ccc4n[nH]c(=O)n4c3)cc(=O)c(O)c2C1=O`, for which the Kd in test [1] turned out to be 187 µM. The figures for the IC50 in test [2] and in test [3] were 0.87 µM and over 50 µM, respectively.
The corresponding values for `CC(C)N1CCn2c(CNC(=O)c3cccn4c(=O)[nH]nc34)cc(=O)c(O)c2C1=O` are over 50 µM, 0.28 µM and over 50 µM.
`CC(C)N1CCn2c(CNC(=O)c3cccc(NC(=O)c4n[nH]c5ncccc45)c3)cc(=O)c(O)c2C1=O` [drawing 29]: the Kd in test [1] was determined as 19.6 µM. Further, in test [2], the IC50 was 1.22 µM.
As for `CC(C)N1CCn2c(CNc3cccc4n[nH]c(=O)n34)cc(=O)c(O)c2C1=O`, the Kd in test [1] was 99.3 µM. Besides, the results for the IC50 in test [2] and in test [3] were 0.936 µM and over 50 µM, respectively.
Consider `CCC(Nc1nc(-c2n[nH]c3ncc(F)cc23)ncc1F)C(=O)NCc1cc(=O)c(O)c2n1CCN(C(C)C)C2=O` (stereo not shown), for which the IC50 in test [2] is 12.2 µM; in test [3], over 50 µM.
`CCC(NC(=O)c1cccn2c(=O)[nH]nc12)C(=O)NCc1cc(=O)c(O)c2n1CCN(C(C)C)C2=O` (stereo not shown): the Kd in test [1] came to 6.3 µM. Moreover, the values for the IC50 in test [2] and in test [3] were 0.43 µM and over 50 µM, respectively.
Regarding `CC(C)[C@H](Nc1nc(C2=CN3C(=O)N=NC3C=C2)ncc1F)C(=O)NCc1cc(=O)c(O)c2n1CCN(C(C)C)C2=O` (stereo partly shown), the IC50 in test [4] and in test [3] was over 50 µM throughout.
Consider `CC(C)N1CCn2c(CNC(=O)CNC(=O)c3c[nH]c4ncc(C5CC5)nc34)cc(=O)c(O)c2C1=O`, for which binding in test [1] was put at a Kd of 3.96 µM. The results for the IC50 in test [2] and in test [3] were 0.27 µM and over 50 µM, respectively.
The matching figures for `CC(C)N1CCn2c(CNC(=O)CCCCCNC(=O)c3c[nH]c4ncc(C5CC5)nc34)cc(=O)c(O)c2C1=O`: 6.36 µM, 0.57 µM and 31.8 µM.
Consider `CC(C)N1CCn2c(CNC(=O)[C@H](NC(=O)c3cccn4c(=O)[nH]nc34)c3ccccc3)cc(=O)c(O)c2C1=O`, for which the Kd in test [1] is over 100 µM. The results for the IC50 in test [2] and in test [3] were 9.87 µM and over 50 µM, respectively.
In turn, `CC(C)N1CCn2c(CNC(=O)c3c[nH]c4ncc(C5CC5)nc34)cc(=O)c(O)c2C1=O` registered a Kd in test [1] of 12.8 µM. For the same molecule, the IC50 in test [2] was 0.87 µM; in test [3] it was over 25 µM.
The matching figures for `CC(C)[C@H](NC(=O)c1cccn2c(=O)[nH]nc12)c1cc(=O)c(O)c2n1CCN(C(C)C)C2=O`: 163 µM, 0.83 µM and over 50 µM.
The matching figures for `CC(C)N1CCn2c(CNc3cc4[nH]ncc4c(Cl)n3)cc(=O)c(O)c2C1=O`: 305 µM, 0.848 µM and over 50 µM.
Regarding `CC(C)N1CCn2c(CNC(=O)CC(NC(=O)c3c[nH]c4ncc(C5CC5)nc34)C3CC3)cc(=O)c(O)c2C1=O` (stereo not shown), it took 0.14 µM to reach half-maximal inhibition in test [4] (IC50). In test [3], the inhibition at 50 µM is 10%.
`CC(C)N1CCn2c(CNCCOC(=O)c3cccn4c(=O)[nH]nc34)cc(=O)c(O)c2C1=O`: in test [1], the dissociation constant Kd was over 100 µM. For the same molecule, the IC50 was 1.41 µM in test [2] and over 50 µM in test [3].
Take `CC(C)N1CCn2c(CNC(=O)[C@H](NC(=O)c3ccc4n[nH]c(=O)n4c3)c3ccccc3)cc(=O)c(O)c2C1=O`: the Kd in test [1] is over 100 µM. Besides, the IC50 is 1.45 µM in test [2] and over 50 µM in test [3].
Consider `CCC(NC(=O)c1c[nH]c2ncc(C3CC3)nc12)C(=O)NCc1cc(=O)c(O)c2n1CCN(C(C)C)C2=O` (stereo not shown), for which the IC50 in test [2] is 0.46 µM; in test [3] it was over 50 µM.
